From US7662853B2, “Monoacetyldiacylglycerol derivative for the treatment of sepsis” (priority 2004, dated 2010)

How the values were obtained:
T-cells = assay: T-cell proliferation (3H-thymidine incorporation, SI); type: cell-based, C57BL/6 mice; details: 7th day
Text: Splenocytes were collected from C57BL/6 mice (provided from Asan Institute for Life Sciences Animal Lab., Seoul, Korea) spleens. Then, single cell suspensions were obtained by repeated aspiration and flushing. Red blood cells were removed using ammonium chloride and then passed through nylon wool to remove debris and clumps. T-cells were purified using magnetic bead (MACS bead, Miltenyi Biotec, bergich gladbach, Germany) containing anti-goat IgG MACS bead, Miltenyi Biotec, bergich gladbach, Germany) or anti-mouse CD4 (MACS bead, Miltenyi Biotec, bergich gladbach, Germany) or anti-mouse CD8 antibody (MACS bead, Miltenyi Biotec, bergich gladbach, Germany) (Turner and Dockrell (1996) Immunology, 87: 339-342).
T cell suspensions were suspended in Isocove's modified Dulbecco's medium (IMDM, Gibco, Grand Island, N.Y.) supplemented with 10% fetal bovine serum (referred as ‘FBS’ hereinafter) (Gibco, Grand Island, N.Y.). […] On the 6th day, cells were incubated with 1 μCi ^3H-thymidine/well for 24 hours. On the 7th day, the cells were harvested and the […] (referred as ‘SI’ hereinafter) was calculated by the following Mathematical Formula 1. SI=^3H-thymidine absorbed by wells of experimental group (CPM in sample)/^3H-thymidine absorbed by wells of control group (CPM in control) [Mathematical Formula 1]

T-cell (T-4 and T-8) = assay: Measurement of cytokine (IL-2) by Elispot, T cell activity; type: cell-based, mouse; details: FIG. 1: Compound 3 1 μg/ml
Description: Elispot bioassay ([…] enzyme-linked immunospot assay) is a very sensitive quantification assay for detecting cytokine bound to the membrane because the bottom of each well of Elispot plates used in this assay was pre-coated with a cytokine specific antibody. Thus, Elispot assay was performed to measure the T cell activity. […] Each sample was tested in duplicate. Counting the number of IL-2 producing cells by Elispot is accomplished with Elispot reader (AID Elispot Reader System).

dendritic cells = assay: Expression of adhesion molecules of dendritic cells (RT-PCR); type: cell-based, Balb/c AnN mice; details: 1 μg/ml, compared to control
Description: Bone marrow cells were obtained from the femurs and tibias of Balb/c AnN mice (Park, J. et al. (2003) J. Korean Med. Sci., 18: 372-380). The cells were washed 3 times in RPMI, and then mononuclear cells were obtained. These mononuclear cells were allowed to adhere to tissue culture flask 3 hours in RPMI and 10% FBS. After incubation, the adherent cells (monocytes) were removed and non-adherent cells were placed in 100 mm tissue culture dishes, in a concentration of 1×10^5 cells/ml in RPMI plus 10% FBS supplemented with 20 ng/ml murine rGM-CSF (R & D systems, Minneapolis, Minn., USA), 10 ng/ml, murine IL-4 (R&D systems), and 2.5 ng/ml murine TNF-α (R & D systems). Culture dishes were fed every 3 days. Murine TNF-α (R & D systems) was added at the 6th day of the culture. After that, murine TNF-α (R & D systems) was added every 3 days until on the 11th day. Mature dendritic cells were harvested for RT-PCR of adhesion molecule studies. […]
Total RNA separated from dendritic cells and MS-5, low density cells cultured with oligo(dt)-primer, was reverse-transcribed, and PCR was performed at 94° C. for 30 seconds, 65° C. for 30 seconds and 72° C. for 50 seconds. […] For the quantification, PCR with GAPDH was performed to confirm the corresponding cDNA.

KIGB-5 cells = assay: Biliary cancer model in hamster, Compound 3 dose groups; type: in vivo, Syrian golden hamsters; details: for gross findings, tumor: 4th week
Description: In another hand, six week old female Syrian golden hamsters were housed in specific pathogen free unit. KIGB-5 cells (5×10^5) suspended in 100 μl of RPMI 1640 serum-free medium were intravenously injected via femoral vein. […] Animals of each group were sacrificed at 4, 8, 12 weeks for pathological examination. […] At 8th week, control group observed multiple metastatic lesions in both lungs.

B16F10 cells = assay: Melanoma model in mice; type: in vivo, C57BL/6 mice; details: Compound 3 50 mg/kg/day P.O.
Description: 6 week female C57BL/6 mice (provided from Asan Institute for Life Sciences Animal Lab., Seoul, Korea) were housed in specific pathogen free unit.
B16F10 cells (2×10^4) suspended in 100 μl of RPMI 1640 serum-free medium were intravenously injected via tail vein. One week before tumor cell injection, the following 3 groups were treated.
2) Dendritic cells (DC) (5×10^5 cells/day)+tumor lysate treated group
In the case of DC+tumor lysate treated group, one week before melanoma injection, 5×10^5 DC cells mixed with tumor lysate were injected to the abdominal cavity every 1 weeks. […] As a result, gross findings at 4th week control group observed multiple metastatic lesions in both lungs.

malignant melanoma cells = assay: Cytotoxicity of T-cells activated by Compound 3 to malignant melanoma cells; type: cell-based; details: ratio of T-cells activated by Compound 3 to melanoma cells 100:1; FIG. 16: 1 μg/ml

With `CCCCC/C=C\C/C=C\CCCCCCCC(=O)OC(COC(C)=O)COC(=O)CCCCCCCCCCCCCCC` (stereo not drawn) [Compound 3] the SI (T-cells; 0.01 μg/ml) was 1.83 ± 0.32, the SI (T-cells; 0.1 μg/ml) was 1.96 ± 0.18 and the “increased T-4 activity comparing to control group (IL-2 Elispot spots)” value (T-cell (T-4 and T-8); T-4 cells) was 1.52 folds. The “increased T-8 activity comparing to control group (IL-2 Elispot spots)” value (T-cell (T-4 and T-8); T-8 cells) was 1.46 folds, the “expressions of adhesion molecules Icam-2, VLA-5, LFA-1” value (dendritic cells) was “significantly increased” and the “gross findings, tumor” value (KIGB-5 cells; 10 mg/kg/day P.O.) was “no evidence of tumor”. The “gross findings, tumor” value (KIGB-5 cells; 25 mg/kg/day P.O.) was “no evidence of tumor”, the “gross findings, tumor” value (KIGB-5 cells; 50 mg/kg/day P.O.) was “no evidence of tumor” and the metastatic lung lesions (KIGB-5 cells; 8th week, 10 mg/kg/day P.O.) was “showed tumor in the left lung”. For the same compound, the “metastatic lung lesions with microscope” value (KIGB-5 cells; 8th week, 25 mg/kg/day P.O.) was “showed one minute lesion with microscope”, the “metastatic lung lesions with naked eye” value (KIGB-5 cells; 8th week, 25 mg/kg/day P.O.) was “did not show any metastatic lung lesions with naked eye” and the “metastatic lung lesions with naked eye” value (KIGB-5 cells; 8th week, 50 mg/kg/day P.O.) was “did not show any metastatic lung lesions with naked eye”. The “gross findings, metastatic lesions in the lung” value (B16F10 cells; 4th week after B16F10 i.v. injection) was “no evidence of disease in the lung”, the Survival rate (B16F10 cells; observation for 6 weeks after melanoma (B16F10) injection) was 90% and the cytotoxicity increased (malignant melanoma cells) was 42%.
